Laboratory results taken from patent US11492348B2, “Tri-substituted aryl and heteroaryl derivatives as modulators of PI3-kinase and autophagy pathways” (Neuropore Therapies, Inc., priority 2018, dated 2022).
Counter-ions that a name gives are not always drawn.

Key:
mTor kinase = mTor kinase (Homo sapiens (Human), UniProt P42345); test: mTor assay (33P-ATP filter-binding kinase assay); format: biochemical; conditions: 2 hours at room temperature
Experimental: The substrate was prepared in base reaction buffer (20 mM Hepes (pH 7.5), 10 mM MgCl2, 1 mM EGTA, 0.02% Brij35, 0.02 mg/ml BSA, 0.1 mM Na3VO4, 2 mM DTT, 1% DMSO), and required cofactors were added to the substrate solution. The mTor kinase was delivered into the substrate solution, and the solution was gently mixed. Testing compounds were dissolved in 100% DMSO to specific concentration. The serial dilution was conducted by Integra Viaflo Assist in DMSO. The compounds were delivered into the kinase reaction mixture by Acoustic technology (Echo550; nanoliter range), and the reaction mixture was incubated for 20 min at room temperature. Then, 33P-ATP (Specific activity 10 μCi/μl) was delivered into the reaction mixture to initiate the reaction. The reaction mixture was incubated for 2 hours at room temperature. Radioactivity was detected by a filter-binding method. Kinase activity data were expressed as the percent remaining kinase activity in test samples compared to vehicle (dimethyl sulfoxide) reactions. IC50 values and curve fits were obtained using Prism (GraphPad Software).

PI3Kα = PI3Kα (Homo sapiens (Human), UniProt P42336); test: Inhibition of PI3Kα (ADP-Glo kinase activity assay, ATP to ADP conversion); format: biochemical; conditions: 25 μM PIP2:PS, 60 μM ATP, 30 min reaction, luminescence
Summary of the method: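 Recombinant active PI3Kα (1.1 nM) in HEPES pH 7.5 buffer with 6 mM MgCl2 and 8 mM DTT was preincubated with compound for 0 or 3 h. The reaction ran for 30 min with 25 µM PIP2:PS and 60 µM ATP, and ADP formation was read by ADP-Glo luminescence. IC50 came from a 12-point, 1:3 series fitted with a 4-parameter model, bottom fixed to reference inhibitor controls and top floating.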

[1] = test system: (Ser-473) pAKT in B103 (Rat Neuroblastoma) cells; test: pAKT protocol: loss of (Ser-473) pAKT by AlphaScreen in insulin-stimulated B103 cells; format: cell-based; conditions: (Ser-473) pAKT/total AKT IC50, 2-hour pretreatment, 2.5 μg/mL insulin 20 minutes
Summary of the method: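 Rat neuroblastoma B103 cells, serum-starved 6 h, were pretreated 2 h with inhibitors (6-point 1:3 series, 0.5% DMSO) before insulin stimulation. Lysate Ser-473 pAKT and total AKT measured by AlphaScreen; pAKT/total AKT ratio fitted to 4-parameter curve, bottom constrained to reference control, top anchored to DMSO.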

Chain of PI3Kα (P42336 whole entry): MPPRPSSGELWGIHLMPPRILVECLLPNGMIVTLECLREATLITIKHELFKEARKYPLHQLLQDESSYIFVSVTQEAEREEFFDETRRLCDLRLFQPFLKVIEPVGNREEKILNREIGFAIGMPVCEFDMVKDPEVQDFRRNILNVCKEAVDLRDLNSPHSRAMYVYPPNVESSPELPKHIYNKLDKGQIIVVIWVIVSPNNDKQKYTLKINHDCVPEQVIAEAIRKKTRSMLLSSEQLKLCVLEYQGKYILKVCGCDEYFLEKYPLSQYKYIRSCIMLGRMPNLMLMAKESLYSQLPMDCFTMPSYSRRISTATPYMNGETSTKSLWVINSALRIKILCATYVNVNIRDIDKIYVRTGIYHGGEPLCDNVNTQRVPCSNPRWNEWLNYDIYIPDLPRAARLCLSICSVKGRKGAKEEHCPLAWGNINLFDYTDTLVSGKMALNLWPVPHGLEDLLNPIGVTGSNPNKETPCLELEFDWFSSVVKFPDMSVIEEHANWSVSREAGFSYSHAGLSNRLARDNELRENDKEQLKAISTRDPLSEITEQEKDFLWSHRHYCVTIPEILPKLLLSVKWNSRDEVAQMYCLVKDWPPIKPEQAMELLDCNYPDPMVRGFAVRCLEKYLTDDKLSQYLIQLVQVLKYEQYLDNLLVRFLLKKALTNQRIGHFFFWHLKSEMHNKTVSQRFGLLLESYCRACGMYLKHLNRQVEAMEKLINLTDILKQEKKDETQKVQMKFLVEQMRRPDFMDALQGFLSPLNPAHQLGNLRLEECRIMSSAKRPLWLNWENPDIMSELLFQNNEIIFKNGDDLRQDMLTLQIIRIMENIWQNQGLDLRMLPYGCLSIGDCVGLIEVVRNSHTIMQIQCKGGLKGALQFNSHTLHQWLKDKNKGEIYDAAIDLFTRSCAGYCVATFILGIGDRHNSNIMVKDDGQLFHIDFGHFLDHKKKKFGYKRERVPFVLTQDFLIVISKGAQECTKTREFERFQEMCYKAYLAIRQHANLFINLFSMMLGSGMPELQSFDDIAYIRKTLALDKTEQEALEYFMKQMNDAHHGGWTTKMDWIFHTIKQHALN
Chain of PI3Kα (P27986 whole entry partner): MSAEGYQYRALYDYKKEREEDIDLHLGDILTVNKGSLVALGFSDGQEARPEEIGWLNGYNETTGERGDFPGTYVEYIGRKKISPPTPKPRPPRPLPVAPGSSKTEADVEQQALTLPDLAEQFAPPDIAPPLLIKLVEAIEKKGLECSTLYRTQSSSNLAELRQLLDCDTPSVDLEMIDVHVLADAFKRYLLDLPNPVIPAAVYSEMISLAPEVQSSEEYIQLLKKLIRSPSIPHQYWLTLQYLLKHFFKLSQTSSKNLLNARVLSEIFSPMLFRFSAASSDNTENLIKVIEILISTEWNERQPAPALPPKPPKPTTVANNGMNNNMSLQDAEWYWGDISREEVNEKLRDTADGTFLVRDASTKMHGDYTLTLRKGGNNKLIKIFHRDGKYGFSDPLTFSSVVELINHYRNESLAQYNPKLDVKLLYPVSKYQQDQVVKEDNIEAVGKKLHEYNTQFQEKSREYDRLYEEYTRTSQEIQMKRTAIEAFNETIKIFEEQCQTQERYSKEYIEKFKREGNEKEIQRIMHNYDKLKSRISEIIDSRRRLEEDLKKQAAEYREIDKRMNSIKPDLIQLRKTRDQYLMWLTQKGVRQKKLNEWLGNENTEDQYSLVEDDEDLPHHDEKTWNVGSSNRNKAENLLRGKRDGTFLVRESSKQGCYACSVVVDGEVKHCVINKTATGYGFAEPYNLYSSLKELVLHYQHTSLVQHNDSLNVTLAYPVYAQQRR

Row | Structure (SMILES) | IC50 (mTor kinase) | PI3Ka IC50 (PI3Kα) | IC50 [1] | IC50 (PI3Kα; read-out: PI3Ka IC50)
1 | Nc1ncc(-c2cc(C(F)(F)c3ccccc3)cc(N3CCOCC3)n2)cn1 [Compound 123, 5-(4-(Difluoro(phenyl)methyl)-6-morpholinopyridin-2-yl)pyrimidin-2-amine] | 560 nM | 46 nM | 460 nM | 
2 | Nc1cc(Cl)c(-c2cc(N3CCOCC3)cc(S(=O)(=O)[C@@H]3CCOC3)c2)cn1 [Compound 107, (R)-4-chloro-5-(3-morpholino-5-((tetrahydrofuran-3-yl)sulfonyl)phenyl)pyridin-2-amine] | 4330 nM | 67 nM | 3700 nM | 
3 | Nc1cc(F)c(-c2cc(N3CCOCC3)cc(S(=O)(=O)[C@@H]3CCOC3)c2)cn1 [Compound 106, (R)-4-fluoro-5-(3-morpholino-5-((tetrahydrofuran-3-yl)sulfonyl)phenyl)pyridin-2-amine] | 1460 nM | 100 nM | 4100 nM | 
4 | CS(=O)(=O)Nc1ccc(CS(=O)(=O)c2cc(-c3cnc(N)nc3)cc(N3CCOCC3)c2)cc1 [57 (as a TFA salt), N-(4-(((3-(2-aminopyrimidin-5-yl)-5-morpholinophenyl)sulfonyl)methyl)phenyl) methanesulfonamide] | 3440 nM |  | 19800 nM | 480 nM
5 | Nc1ncc(-c2cc(Oc3ccccc3Cl)cc(N3CCOCC3)n2)cn1 [Compound 134, 5-(4-(2-chlorophenoxy)-6-morpholinopyridin-2-yl)pyrimidin-2-amine] | 450 nM | 70 nM | 380 nM | 
6 | COc1ccccc1Oc1cc(-c2cnc(N)nc2)nc(N2CCOCC2)c1 [Compound 135, 5-(4-(2-methoxyphenoxy)-6-morpholinopyridin-2-yl)pyrimidin-2-amine] | 700 nM | 79 nM | 1620 nM | 
7 | Nc1ncc(-c2cc(C(=O)c3ccccc3)cc(N3CCOCC3)n2)cn1 [Compound 122, (2-(2-aminopyrimidin-5-yl)-6-morpholinopyridin-4-yl)(phenyl)methanone] | 510 nM | 37 nM | 480 nM | 
8 | Nc1ncc(-c2cc(Oc3ccccc3OC(F)(F)F)cc(N3CCOCC3)n2)cn1 [Compound 136, 5-(6-morpholino-4-(2-(trifluoromethoxy)phenoxy)pyridin-2-yl)pyrimidin-2-amine] | 2060 nM | 370 nM | 1510 nM | 
9 | Nc1cc(C(F)(F)F)c(-c2cc(N3CCOCC3)cc(S(=O)(=O)C3CCOC3)c2)cn1 (stereo not drawn) [Compound 70, 5-(3-morpholino-5-((tetrahydrofuran-3-yl)sulfonyl)phenyl)-4-(trifluoromethyl)pyridin-2-amine] | 7610 nM | 7600 nM | 4020 nM | 
10 | Nc1ncc(-c2cc(C(F)(F)C3CCOCC3)cc(N3CCOCC3)n2)cn1 [Compound 133, 5-(4-(difluoro(tetrahydro-2H-pyran-4-yl)methyl)-6-morpholinopyridin-2-yl)pyrimidin-2-amine] | 440 nM | 12 nM | 400 nM | 
11 | N#Cc1ccc(S(=O)(=O)c2cc(-c3cnc(N)cc3C(F)(F)F)cc(N3CCOCC3)c2)cc1 [Compound 18, 4-((3-(6-amino-4-(trifluoromethyl)pyridin-3-yl)-5-morpholinophenyl)sulfonyl)benzonitrile] | 100000 nM | 3900 nM | 100000 nM | 
12 | Nc1ncc(-c2cc(OC3CN(C(=O)C4CC4)C3)cc(N3CCOCC3)n2)cn1 [Compound 129, (3-((2-(2-aminopyrimidin-5-yl)-6-morpholinopyridin-4-yl)oxy)azetidin-1-yl)(cyclopropyl)methanone] | 2950 nM | 34 nM | 3460 nM | 
13 | CC(=O)Nc1ncc(-c2cc(N3CCOCC3)cc(S(=O)(=O)c3ccccc3)c2)cn1 [Compound 30, N-(5-(3-morpholino-5-(phenylsulfonyl)phenyl)pyrimidin-2-yl)acetamide] | 10900 nM | 3100 nM | 18000 nM | 
14 | Nc1ncc(-c2cc(C(=O)c3ccccc3Cl)cc(N3CCOCC3)n2)cn1 [Compound 138, (2-(2-aminopyrimidin-5-yl)-6-morpholinopyridin-4-yl)(2-chlorophenyl)methanone] | 1100 nM | 14 nM | 190 nM | 
15 | N#Cc1ccc(S(=O)(=O)c2cc(-c3cnc(N)nc3)cc(N3CCOCC3)c2)cc1 [Compound 10, 4-((3-(2-aminopyrimidin-5-yl)-5-morpholinophenyl)sulfonyl)benzonitrile] | 640 nM | 460 nM | 30700 nM | 
16 | Cc1cnccc1-c1cc(N2CCOCC2)cc(S(=O)(=O)c2ccccc2)c1 [Compound 12, 4-(3-(3-methylpyridin-4-yl)-5-(phenylsulfonyl)phenyl)morpholine] | 100000 nM | 9000 nM | 100000 nM | 
17 | O=S(=O)(Cc1ccccc1)c1cc(-c2cnc(NCCO)nc2)cc(N2CCOCC2)c1 [Compound 35, 2-((5-(3-(benzylsulfonyl)-5-morpholinophenyl)pyrimidin-2-yl)amino)ethan-1-ol] | 12200 nM | 1100 nM | 23500 nM | 
18 | Nc1ncc(-c2cc(C3(c4ccccc4)CC3)cc(N3CCOCC3)n2)cn1 [Compound 127, 5-(6-morpholino-4-(1-phenylcyclopropyl)pyridin-2-yl)pyrimidin-2-amine] | 130 nM | 56 nM | 380 nM | 

Continued, values first:

Row | IC50 (mTor kinase) | PI3Ka IC50 (PI3Kα) | IC50 [1] | IC50 (PI3Kα; read-out: PI3Ka IC50) | Structure (SMILES)
19 | 830 nM | 1300 nM | 7620 nM |  | Nc1ncc(-c2cc(N3CCOCC3)cc(S(=O)(=O)c3ccc(F)cc3)c2)cn1 [Compound 8, 5-(3-((4-fluorophenyl)sulfonyl)-5-morpholinophenyl)pyrimidin-2-amine]
20 | 1870 nM | 330 nM | 6470 nM |  | Nc1ncc(-c2cc(N3CCOCC3)cc(S(=O)(=O)C3CCOCC3)c2)cn1 [Compound 62, 5-(3-morpholino-5-((tetrahydro-2H-pyran-4-yl)sulfonyl)phenyl)pyrimidin-2-amine]
21 | 590 nM | 130 nM | 2460 nM |  | CC(C)(C)OC(=O)N1CC(S(=O)(=O)c2cc(-c3cnc(N)nc3)cc(N3CCOCC3)c2)C1 [Compound 54, tert-butyl 3-((3-(2-aminopyrimidin-5-yl)-5-morpholinophenyl)sulfonyl) azetidine-1-carboxylate]
22 | 4800 nM | 790 nM | 9900 nM |  | Nc1ncc(-c2cc(N3CCOCC3)cc(S(=O)(=O)CC3CCOCC3)c2)cn1 [Compound 39, 5-(3-morpholino-5-(((tetrahydro-2H-pyran-4-yl)methyl)sulfonyl)phenyl)pyrimidin-2-amine]
23 | 2580 nM | 180 nM | 7330 nM |  | CC(=O)N1CCC(S(=O)(=O)c2cc(-c3cnc(N)nc3)cc(N3CCOCC3)c2)C1 (stereo not drawn) [Compound 91, 1-(3-((3-(2-aminopyrimidin-5-yl)-5-morpholinophenyl)sulfonyl)pyrrolidin-1-yl)ethan-1-one]
24 | 540 nM | 110 nM | 1650 nM |  | Nc1ncc(-c2cc(N3CCOCC3)cc(S(=O)(=O)[C@H]3CCOC3)c2)cn1 [Compound 53, (S)-5-(3-morpholino-5-((tetrahydrofuran-3-yl)sulfonyl)phenyl)pyrimidin-2-amine]
25 | 1440 nM | 210 nM | 1000 nM |  | Nc1ncc(-c2cc(N3CCOCC3)cc(S(=O)(=O)C(F)(F)c3ccccc3)c2)cn1 [Compound 87, 5-(3-((difluoro(phenyl)methyl)sulfonyl)-5-morpholinophenyl)pyrimidin-2-amine]
26 | 3000 nM | 100 nM | 8500 nM |  | Nc1ncc(-c2cc(N3CCOCC3)cc(S(=O)(=O)Cc3ccccc3)c2)cn1 [Compound 23, 5-(3-(benzylsulfonyl)-5-morpholinophenyl)pyrimidin-2-amine]
27 | 5400 nM | 380 nM | 14500 nM |  | Nc1ncc(-c2cc(N3CCOCC3)cc(S(=O)(=O)c3cccc4c3OCC4)c2)cn1 [Compound 111, 5-(3-((2,3-dihydrobenzofuran-7-yl)sulfonyl)-5-morpholinophenyl)pyrimidin-2-amine]
28 | 10000 nM | 910 nM | 28600 nM |  | N#Cc1cccc(S(=O)(=O)c2cc(-c3cnc(N)nc3)cc(N3CCOCC3)c2)c1 [Compound 13, 3-((3-(2-aminopyrimidin-5-yl)-5-morpholinophenyl)sulfonyl)benzonitrile]
